Results on 3 compounds are retold here after paper doi:10.1101/2021.06.10.447714v2 (bioRxiv, 2021).

Holding throughout (type): biochemical
The target of data set [1] is T1, insulin degrading enzyme (IDE) (Homo sapiens, UniProt P14735). Description: Circular dichroism analysis of insulin degradation by IDE. As to conditions: CD at 222 nm and LC, substrate:enzyme ratio 100:1, 37 °C. Background: Circular dichroism is the unequal absorption of left and right circularly polarised light.
For data set [2], the target named is T1, insulin degrading enzyme (IDE). Description: SDS-PAGE assay for ghrelin proteolysis by IDE. As to conditions: EDTA added to the enzyme pre-mixture, 50 mM Tris pH 7.3, 37 °C.
For data set [3] the target is unchanged. Description: Identification of IDE-mediated cleavage sites by HPLC and MALDI-TOF. As to conditions: HPLC (C-18) and MALDI-TOF; 50 mM Tris pH 7.3, 37 °C; three runs.

On to “insulin: established IDE substrate, used in CD experiments”, for which, in data set [1], the “insulin degradation by IDE in 30% TFE” value is listed as “does not degrade”.

Regarding `O=C(O)CN(CCN(CC(=O)O)CC(=O)O)CC(=O)O` [EDTA, ethylenediaminetetraacetate], the “inhibition of IDE-mediated ghrelin proteolysis” value in data set [2] was “inhibited”.

As for `CCCCCCCC(=O)OC[C@H](NC(=O)[C@H](CO)NC(=O)CN)C(=O)N[C@@H](Cc1ccccc1)C(=O)N[C@@H](CC(C)C)C(=O)N[C@@H](CO)C(=O)N1CCC[C@H]1C(=O)N[C@@H](CCC(=O)O)C(=O)N[C@@H](Cc1cnc[nH]1)C(=O)N[C@@H](CCC(N)=O)C(=O)N[C@@H](CCCNC(=N)N)C(=O)N[C@H](C(=O)N[C@@H](CCC(N)=O)C(=O)N[C@@H](CCC(N)=O)C(=O)N[C@@H](CCCNC(=N)N)C(=O)N[C@@H](CCCCN)C(=O)N[C@@H](CCC(=O)O)C(=O)N[C@@H](CO)C(=O)N[C@@H](CCCCN)C(=O)N[C@@H](CCCCN)C(=O)N1CCC[C@H]1C(=O)N1CCC[C@H]1C(=O)N[C@@H](C)C(=O)N[C@@H](CCCCN)C(=O)N[C@@H](CC(C)C)C(=O)N[C@@H](CCC(N)=O)C(=O)N1CCC[C@H]1C(=O)N[C@@H](CCCNC(=N)N)C(=O)O)C(C)C` [ghrelin], the “IDE-mediated cleavage sites (initial)” value in data set [3] was “Q13/ Q14, Q14/R15 and possibly Q10/R11”.
